Data from PubChem BioAssay (NCI).
Values joined by “and” are separate entries in the source; they are usually repeats but may differ in a detail not shown here. Equal entries are not always repeated.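 Interpolation was linear, between the two tested concentrations surrounding the appropriate level; five concentrations were tested over 48 hours in 96-well plates. GI50: concentration for 50% inhibition of growth. Definition used: TGI = concentration required for complete inhibition of growth.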

Experiments:
Assay in all cases: growth of human tumour cells (NCI), 48 h
BT-549 breast = tested on: BT-549 breast
HS 578T breast = tested on: HS 578T breast
K-562 leukemia = tested on: K-562 leukemia
MCF7 breast = tested on: MCF7 breast
MDA-MB-231 breast = tested on: MDA-MB-231 breast
NCI-H226 lung = tested on: NCI-H226 lung
NCI-H460 lung = tested on: NCI-H460 lung
OVCAR-8 ovarian = tested on: OVCAR-8 ovarian
SF-539 CNS = tested on: SF-539 CNS
M14 melanoma = tested on: M14 melanoma

Row | Structure (SMILES) | GI50 (BT-549 breast) | TGI (BT-549 breast) [µM] | GI50 (HS 578T breast) [µM] | TGI (HS 578T breast) [µM] | GI50 (K-562 leukemia) [µM] | TGI (K-562 leukemia) [µM] | GI50 (MCF7 breast) [µM] | TGI (MCF7 breast) [µM] | GI50 (MDA-MB-231 breast) [µM] | TGI (MDA-MB-231 breast) [µM] | GI50 (NCI-H226 lung) [µM] | TGI (NCI-H226 lung) [µM] | GI50 (NCI-H460 lung) [µM] | TGI (NCI-H460 lung) [µM] | GI50 (OVCAR-8 ovarian) | TGI (OVCAR-8 ovarian) [µM] | GI50 (SF-539 CNS) | TGI (SF-539 CNS) [µM] | TGI (M14 melanoma) [µM] | GI50 (M14 melanoma) [µM]
1 | COc1ccc(/C=C(\C#N)c2cc(OC)c3c(c2)OCO3)cc1 | 0.0657 µM | 83.2 | 0.01 | 39.1 | < 0.01 | > 100 | < 0.0118 | 19.8 | 0.0553 | 46.3 | 0.0249 | 2.56 | < 0.01 | 4.28 | 0.026 µM | 34.5 | < 0.0131 µM | 11.5 | – | –
2 | CC(=S)NNC(=O)c1ccncc1 | – | – | – | – | – | > 100 | – | – | – | – | – | > 100 | – | > 100 | – | > 100 | – | > 100 | > 100 | –
3 | Clc1cc(Cl)cc(N2N=C(c3cccc(Nc4ccncc4)c3)CC2c2ccc(Br)cc2)c1 (stereo not given) | 1.94 µM | 3.72 | – | – | 2.26 | 5.69 | – | – | 1.51 | 2.91 | – | – | 1.81 | 3.51 | 2.16 µM | 4.87 | 1.7 µM | 3.12 | 3.63 | 1.8
4 | C=C(CN1CCN(c2ccccc2F)CC1)c1ccc(C(=O)Nc2ccccc2N)cc1 | 1.46 µM | 8.82 | 3.14 | > 100 | 0.986 | > 100 | 0.889 | > 100 | 0.24 | 3.14 | 2.34 | 17.3 | 4.44 | > 100 | 1.92 µM | > 100 | 1.55 µM | 6.31 | – | –
5 | O=C(c1ccc(NCN2C(=O)CCC2=O)cc1)c1ccc(NCN2C(=O)CCC2=O)cc1 | – | – | – | – | – | > 100 | – | – | – | – | – | – | – | > 100 | – | > 100 | – | > 100 | > 100 | –
6 | CNS(=O)(=O)NN(C)S(=O)(=O)c1ccc(Br)cc1 | – | – | – | – | – | > 100 | – | – | – | – | – | > 100 | – | – | – | > 100 | – | > 100 | > 100 | –
7 | O=[N+]([O-])c1cc(Br)cc2c1[nH]c1ccc(Br)cc12 | 18.7 µM | 58 | 2.25 | 20 | – | – | 6.34 | > 100 | 2.71 | > 100 | 3.24 | 21.9 | 4.66 | 66.6 | 11.4 µM | > 100 | 12.2 µM | 71.7 | > 100 | 14.6
8 | CCOC(=O)C(Cc1c[nH]c2cc([N+](=O)[O-])ccc12)(NC(C)=O)C(=O)OCC | 64.9 µM and 75 µM | > 682 | 61.3 | > 798 | – | – | – | > 1000 | 167 | > 715 | > 769 | > 1000 | – | > 1000 | 30.3 µM and 104 µM | > 1000 | 68.3 µM and 84.2 µM | 330 | – | > 931
9 | O[C@]12CCCC[C@H]1CCC2 | – | – | – | – | – | > 100 | – | – | – | – | – | – | – | > 100 | – | > 100 | – | > 100 | > 100 | –
10 | CC(=O)O[C@@H]1CC(C)C2CC2C2=C(C(O)OC2O)[C@@H]1C(C)CCC=C(C)C (stereo not given in full) | – | – | – | – | – | 66.9 | – | – | – | – | – | 36.5 | – | 38.3 | – | 73 | – | 34.2 | > 100 | –
